# Test system: MV-4-11 cells
# Experiment: Gene expression microarray analysis (Affymetrix PrimeView) and GSEA
# Type: cell-based, human
# Design: RFU PODN (11730768_x_at) / Fold change /veh PODN (11730768_x_at) / RFU LINC00158 (11744669_a_at) / Fold change /veh LINC00158 (11744669_a_at) / RFU DUSP10 (11751237_a_at) / Fold change /veh DUSP10 (11751237_a_at) / RFU ID3 (11757404_x_at) / Fold change /veh ID3 (11757404_x_at) / RFU PLEKHG5 (11737974_s_at) / Fold change /veh PLEKHG5 (11737974_s_at) / RFU LRRC4B (11730491_at) / Fold change /veh LRRC4B (11730491_at) / RFU GIMAP4 (11747438_a_at) / Fold change /veh GIMAP4 (11747438_a_at) / RFU KRT8 (11758183_x_at) / Fold change /veh KRT8 (11758183_x_at) / RFU CNN1 (11734310_a_at) / Fold change /veh CNN1 (11734310_a_at) / RFU VPS37D (11726825_at) / Fold change /veh VPS37D (11726825_at) / RFU C10orf10 (11716522_x_at) / Fold change /veh C10orf10 (11716522_x_at) / RFU KIR2DL2 /// KIR2DL4 /// KIR2DL5A /// KIR2DL5B /// KIR2DS1 /// KIR2DS2 /// KIR2DS3 /// KIR2DS4 /// KIR3DL3 /// KIR3DL3 /// KIR3DS1 (11738374_at) / Fold change /veh KIR2DL2 /// KIR2DL4 /// KIR2DL5A /// KIR2DL5B /// KIR2DS1 /// KIR2DS2 /// KIR2DS3 /// KIR2DS4 /// KIR3DL3 /// KIR3DL3 /// KIR3DS1 (11738374_at) / RFU C1QL1 (11718748_at) / Fold change /veh C1QL1 (11718748_at) / RFU TMPRSS4 (11747572_a_at) / Fold change /veh TMPRSS4 (11747572_a_at) / RFU HAMP (11756126_x_at) / Fold change /veh HAMP (11756126_x_at) / RFU RNFT2 (11725882_a_at) / Fold change /veh RNFT2 (11725882_a_at) / RFU NR4A2 (11747474_a_at) / Fold change /veh NR4A2 (11747474_a_at) / RFU ABCC12 (11746883_a_at) / Fold change /veh ABCC12 (11746883_a_at) / RFU TMEM136 (11760407_x_at) / Fold change /veh TMEM136 (11760407_x_at) / RFU CLDN22 /// WWC2 (11732394_at) / Fold change /veh CLDN22 /// WWC2 (11732394_at) / RFU HLA-DPB1 (11760878_x_at) / Fold change /veh HLA-DPB1 (11760878_x_at) / RFU SPINT1 (11716480_a_at) / Fold change /veh SPINT1 (11716480_a_at) / RFU GAP43 (11754022_s_at) / Fold change /veh GAP43 (11754022_s_at) / RFU A4GNT (11735810_at) / Fold change /veh A4GNT (11735810_at) / RFU PRB3 (11715151_x_at) / Fold change /veh PRB3 (11715151_x_at) / RFU TUBB4B (11761932_at) / Fold change /veh TUBB4B (11761932_at) / RFU CAPN14 (11732068_a_at) / Fold change /veh CAPN14 (11732068_a_at) / RFU TMCC2 (11721928_a_at) / Fold change /veh TMCC2 (11721928_a_at) / RFU IRGQ (11745062_a_at) / Fold change /veh IRGQ (11745062_a_at) / RFU FAM174B (11720279_a_at) / Fold change /veh FAM174B (11720279_a_at) / RFU TMPRSS4 (11748680_a_at) / Fold change /veh TMPRSS4 (11748680_a_at) / RFU FAM212B (11763350_a_at) / Fold change /veh FAM212B (11763350_a_at) / RFU PLEKHG5 (11743358_a_at) / Fold change /veh PLEKHG5 (11743358_a_at) / RFU ZSCAN30 (11745921_a_at) / Fold change /veh ZSCAN30 (11745921_a_at) / RFU CMKLR1 (11741424_a_at) / Fold change /veh CMKLR1 (11741424_a_at) / RFU LOC101060620 /// MAPK8IP1 (11723275_at) / Fold change /veh LOC101060620 /// MAPK8IP1 (11723275_at) / RFU SPTSSB (11747773_x_at) / Fold change /veh SPTSSB (11747773_x_at) / RFU PRSS12 (11739890_at) / Fold change /veh PRSS12 (11739890_at) / RFU BIN1 (11741810_x_at) / Fold change /veh BIN1 (11741810_x_at) / RFU WNT11 (11732464_a_at) / Fold change /veh WNT11 (11732464_a_at) / RFU C10orf10 (11716521_a_at) / Fold change /veh C10orf10 (11716521_a_at) / RFU C5orf56 (11738089_at) / Fold change /veh C5orf56 (11738089_at) / RFU CYB561 (11721691_x_at) / Fold change /veh CYB561 (11721691_x_at) / RFU ANKRD19P (11752326_a_at) / Fold change /veh ANKRD19P (11752326_a_at) / RFU OR2T12 /// OR2T33 /// OR2T8 (11738714_s_at) / Fold change /veh OR2T12 /// OR2T33 /// OR2T8 (11738714_s_at) / RFU VCAN (11748164_a_at) / Fold change /veh VCAN (11748164_a_at) / RFU JSRP1 (11732532_at) / Fold change /veh JSRP1 (11732532_at) / RFU KRTAP10-11 (11738290_x_at) / Fold change /veh KRTAP10-11 (11738290_x_at) / RFU MYO3A (11730013_a_at) / Fold change /veh MYO3A (11730013_a_at) / RFU EBF3 (11725865_a_at) / Fold change /veh EBF3 (11725865_a_at) / RFU CAMK2N1 (11719241_x_at) / Fold change /veh CAMK2N1 (11719241_x_at) / RFU C5orf56 (11738088_a_at) / Fold change /veh C5orf56 (11738088_a_at) / RFU OLFML3 (11715873_a_at) / Fold change /veh OLFML3 (11715873_a_at) / RFU LOC100653217 /// NTM (11731650_a_at) / Fold change /veh LOC100653217 /// NTM (11731650_a_at) / RFU MAPK11 (11762145_a_at) / Fold change /veh MAPK11 (11762145_a_at) / RFU FIZ1 (11724087_x_at) / Fold change /veh FIZ1 (11724087_x_at) / RFU OASL (11726364_x_at) / Fold change /veh OASL (11726364_x_at) / RFU SOX15 (11748057_x_at) / Fold change /veh SOX15 (11748057_x_at) / RFU CD79A (11719716_a_at) / Fold change /veh CD79A (11719716_a_at) / RFU HIST1H1D (11736915_at) / Fold change /veh HIST1H1D (11736915_at) / RFU CASKIN2 (11723855_a_at) / Fold change /veh CASKIN2 (11723855_a_at) / RFU LOC730098 (11760151_x_at) / Fold change /veh LOC730098 (11760151_x_at) / RFU OR4N2 (11742367_at) / Fold change /veh OR4N2 (11742367_at) / RFU PRRT2 (11749266_a_at) / Fold change /veh PRRT2 (11749266_a_at) / RFU SNX32 (11753110_a_at) / Fold change /veh SNX32 (11753110_a_at) / RFU CDHR5 (11726645_a_at) / Fold change /veh CDHR5 (11726645_a_at) / RFU RCAN1 (11760418_a_at) / Fold change /veh RCAN1 (11760418_a_at) / RFU FAM167A (11723789_a_at) / Fold change /veh FAM167A (11723789_a_at) / RFU FAM26E (11764081_at) / Fold change /veh FAM26E (11764081_at) / RFU ISYNA1 (11749810_s_at) / Fold change /veh ISYNA1 (11749810_s_at) / RFU ACY1 (11761880_at) / Fold change /veh ACY1 (11761880_at) / RFU 11764098_at / Fold change /veh 11764098_at / RFU SAMD14 (11745864_x_at) / Fold change /veh SAMD14 (11745864_x_at) / RFU NPB (11741838_a_at) / Fold change /veh NPB (11741838_a_at) / RFU TMPRSS6 (11731388_a_at) / Fold change /veh TMPRSS6 (11731388_a_at) / RFU KRTAP10-2 (11738614_at) / Fold change /veh KRTAP10-2 (11738614_at) / RFU ARHGAP8 /// PRR5-ARHGAP8 (11727945_x_at) / Fold change /veh ARHGAP8 /// PRR5-ARHGAP8 (11727945_x_at) / RFU KRTAP5-7 /// NADSYN1 (11734609_at) / Fold change /veh KRTAP5-7 /// NADSYN1 (11734609_at) / RFU RASL12 (11751679_a_at) / Fold change /veh RASL12 (11751679_a_at) / RFU CDKN2B (11736163_a_at) / Fold change /veh CDKN2B (11736163_a_at) / RFU PRF1 (11729649_at) / Fold change /veh PRF1 (11729649_at) / RFU, ZNF638 /// ZNF638-IT1 / Fold change vs veh, ZNF638 /// ZNF638-IT1 / RFU, PANK3 / Fold change vs veh, PANK3 / RFU, SH3YL1 / Fold change vs veh, SH3YL1 / RFU, ZEB2 / Fold change vs veh, ZEB2 / RFU, NRIP1 / Fold change vs veh, NRIP1 / RFU, PTTG1IP / Fold change vs veh, PTTG1IP / RFU, CAPN2 / Fold change vs veh, CAPN2 / RFU, MED14 / Fold change vs veh, MED14 / RFU, SNORA58 / Fold change vs veh, SNORA58 / RFU, C1orf63 / Fold change vs veh, C1orf63 / RFU, LRRFIP1 / Fold change vs veh, LRRFIP1 / RFU, NDUFAF7 / Fold change vs veh, NDUFAF7 / RFU, SLC12A2 / Fold change vs veh, SLC12A2 / RFU, IBTK / Fold change vs veh, IBTK / RFU, ESF1 / Fold change vs veh, ESF1 / Fold change vs veh, TMEM50B / RFU, TAOK1 / Fold change vs veh, TAOK1 / RFU, ACBD3 / Fold change vs veh, ACBD3 / RFU, TMA16 / Fold change vs veh, TMA16 / RFU, RWDD3 / Fold change vs veh, RWDD3 / RFU, BCAT1 / Fold change vs veh, BCAT1 / RFU, EDEM3 / Fold change vs veh, EDEM3 / RFU, TMEM33 / Fold change vs veh, TMEM33 / RFU, WDR75 / Fold change vs veh, WDR75 / RFU, AHCTF1 / Fold change vs veh, AHCTF1 / RFU, TFRC / Fold change vs veh, TFRC / RFU, ZDHHC17 / Fold change vs veh, ZDHHC17 / RFU, NOM1 / Fold change vs veh, NOM1 / RFU, ARL8B / Fold change vs veh, ARL8B / RFU, ZBTB11 / Fold change vs veh, ZBTB11 / RFU, TAMM41 / Fold change vs veh, TAMM41 / RFU, KIAA1704 /// LOC100996395 / Fold change vs veh, KIAA1704 /// LOC100996395 / RFU, ING1 / Fold change vs veh, ING1 / RFU, TRMT61B / Fold change vs veh, TRMT61B / RFU, FUBP3 / Fold change vs veh, FUBP3 / RFU, TP53 / Fold change vs veh, TP53 / RFU, TNKS2 / Fold change vs veh, TNKS2 / RFU, ZFP14 / Fold change vs veh, ZFP14 / RFU, ACTR2 / Fold change vs veh, ACTR2 / RFU, PPP3R1 / Fold change vs veh, PPP3R1 / RFU, PIK3R1 / Fold change vs veh, PIK3R1 / RFU, HNRNPA1 / Fold change vs veh, HNRNPA1 / RFU, RNF170 / Fold change vs veh, RNF170 / RFU, ZNF28 / Fold change vs veh, ZNF28 / RFU, RNGTT / Fold change vs veh, RNGTT / RFU, OGT / Fold change vs veh, OGT / RFU, BRD1 / Fold change vs veh, BRD1 / RFU, MARS / Fold change vs veh, MARS / RFU, ZNF655 / Fold change vs veh, ZNF655 / RFU, FAHD1 / Fold change vs veh, FAHD1 / RFU, BDP1 / Fold change vs veh, BDP1 / RFU, LRRCC1 / Fold change vs veh, LRRCC1 / RFU, ARID1A / Fold change vs veh, ARID1A / RFU, ZNF146 / Fold change vs veh, ZNF146 / RFU, ZNF330 / Fold change vs veh, ZNF330 / RFU, GPN3 / Fold change vs veh, GPN3 / RFU, C9orf123 / Fold change vs veh, C9orf123 / RFU, N4BP2L2 / Fold change vs veh, N4BP2L2 / RFU, ARFIP1 / Fold change vs veh, ARFIP1 / RFU, FAM179B / Fold change vs veh, FAM179B / RFU, BCL10 / Fold change vs veh, BCL10 / RFU, UHRF1BP1L / Fold change vs veh, UHRF1BP1L / RFU, BET1 / Fold change vs veh, BET1 / RFU, CNOT2 / Fold change vs veh, CNOT2 / RFU, ZNF268 / Fold change vs veh, ZNF268 / Fold change vs veh, ZNF507 / RFU, DGCR2 / Fold change vs veh, DGCR2 / RFU, WDSUB1 / Fold change vs veh, WDSUB1 / Fold change vs veh, HSP90B1 /// MIR3652 / RFU, ADSS / Fold change vs veh, ADSS / RFU, GK / Fold change vs veh, GK / RFU, ZNF148 / Fold change vs veh, ZNF148 / RFU, TAF9 / Fold change vs veh, TAF9 / RFU, SLC1A5 / Fold change vs veh, SLC1A5 / RFU, SLMO2 / Fold change vs veh, SLMO2 / RFU, ABCC4 / Fold change vs veh, ABCC4 / RFU, LOC101060439 /// RAP1B / Fold change vs veh, LOC101060439 /// RAP1B / RFU, RFX7 / Fold change vs veh, RFX7 / RFU, GTPBP10 / Fold change vs veh, GTPBP10 / RFU, CNEP1R1 / Fold change vs veh, CNEP1R1 / RFU, BIVM-ERCC5 /// ERCC5 / Fold change vs veh, BIVM-ERCC5 /// ERCC5 / RFU, ILF3 / Fold change vs veh, ILF3 / RFU 11762660_at / Fold change /veh 11762660_at / RFU VCAN (11757783_s_at) / Fold change /veh VCAN (11757783_s_at) / RFU DDX43 (11728927_at) / Fold change /veh DDX43 (11728927_at) / RFU KRT8 (11758188_x_at) / Fold change /veh KRT8 (11758188_x_at) / RFU NKD1 (11759106_at) / Fold change /veh NKD1 (11759106_at) / RFU SRD5A1 (11742802_a_at) / Fold change /veh SRD5A1 (11742802_a_at) / RFU TPSAB1 /// TPSB2 (11721975_s_at) / Fold change /veh TPSAB1 /// TPSB2 (11721975_s_at) / RFU GSTM3 (11746129_a_at) / Fold change /veh GSTM3 (11746129_a_at) / RFU IL23R (11737362_x_at) / Fold change /veh IL23R (11737362_x_at) / RFU TMEM51 (11727254_a_at) / Fold change /veh TMEM51 (11727254_a_at) / RFU PIWIL2 (11732686_x_at) / Fold change /veh PIWIL2 (11732686_x_at) / RFU ORM1 (11744905_x_at) / Fold change /veh ORM1 (11744905_x_at) / RFU CCDC152 (11743942_at) / Fold change /veh CCDC152 (11743942_at) / RFU ECM1 (11717891_a_at) / Fold change /veh ECM1 (11717891_a_at) / RFU IL23R (11748794_a_at) / Fold change /veh IL23R (11748794_a_at) / RFU TNFAIP8L3 (11732012_x_at) / Fold change /veh TNFAIP8L3 (11732012_x_at) / RFU MBOAT4 (11741988_at) / Fold change /veh MBOAT4 (11741988_at) / RFU 11764193_at / Fold change /veh 11764193_at / RFU TMEM53 (11763286_at) / Fold change /veh TMEM53 (11763286_at) / RFU MAGEB2 (11727129_at) / Fold change /veh MAGEB2 (11727129_at) / RFU TMEM200A (11744735_a_at) / Fold change /veh TMEM200A (11744735_a_at) / RFU CCDC152 (11751479_a_at) / Fold change /veh CCDC152 (11751479_a_at) / RFU FAM211A (11726209_a_at) / Fold change /veh FAM211A (11726209_a_at) / RFU RGS16 (11746705_a_at) / Fold change /veh RGS16 (11746705_a_at) / RFU VCAN (11755009_s_at) / Fold change /veh VCAN (11755009_s_at) / RFU RHOB (11743442_s_at) / Fold change /veh RHOB (11743442_s_at) / RFU RGS16 (11720943_a_at) / Fold change /veh RGS16 (11720943_a_at) / RFU RGS16 (11720944_at) / Fold change /veh RGS16 (11720944_at) / RFU, VPS4B / Fold change vs veh, VPS4B / RFU, CREB1 / Fold change vs veh, CREB1 / RFU, DNAJC13 / Fold change vs veh, DNAJC13 / RFU, GNAQ / Fold change vs veh, GNAQ / RFU, CDK5R1 / Fold change vs veh, CDK5R1 / RFU, ZRANB3 / Fold change vs veh, ZRANB3 / RFU, CUL4A / Fold change vs veh, CUL4A / RFU, CCNY / Fold change vs veh, CCNY / RFU, UFL1 / Fold change vs veh, UFL1 / RFU, COG3 / Fold change vs veh, COG3 / RFU, DIAPH2 / Fold change vs veh, DIAPH2 / RFU, SKA2 / Fold change vs veh, SKA2 / RFU, AFF3 / Fold change vs veh, AFF3 / RFU, LMF1 / Fold change vs veh, LMF1 / RFU, IPO11 / Fold change vs veh, IPO11 / RFU, DFFB / Fold change vs veh, DFFB / RFU, FOXP1 / Fold change vs veh, FOXP1 / RFU, CARD8 / Fold change vs veh, CARD8 / RFU, STRN3 / Fold change vs veh, STRN3 / RFU, ADK / Fold change vs veh, ADK / RFU, RASSF2 / Fold change vs veh, RASSF2 / RFU, WIPF1 / Fold change vs veh, WIPF1 / RFU, LARP1B / Fold change vs veh, LARP1B / RFU, RASA1 / Fold change vs veh, RASA1 / RFU, RB1 / Fold change vs veh, RB1 / RFU, PPFIA1 / Fold change vs veh, PPFIA1 / RFU, MAT2A / Fold change vs veh, MAT2A / RFU, CCT5 / Fold change vs veh, CCT5 / RFU, WDR92 / Fold change vs veh, WDR92 / RFU, CUX1 / Fold change vs veh, CUX1 / RFU, TTC7A / Fold change vs veh, TTC7A / RFU, TMEM135 / Fold change vs veh, TMEM135 / RFU, DEPTOR / Fold change vs veh, DEPTOR / RFU, CPM / Fold change vs veh, CPM / RFU, DNAJB6 / Fold change vs veh, DNAJB6 / RFU, CACNA2D3 / Fold change vs veh, CACNA2D3 / RFU, DTX4 / Fold change vs veh, DTX4 / RFU, TFCP2 / Fold change vs veh, TFCP2 / RFU, GMCL1 /// GMCL1P1 / Fold change vs veh, GMCL1 /// GMCL1P1 / RFU, AEBP2 / Fold change vs veh, AEBP2 / RFU, SNHG1 /// SNORD22 /// SNORD25 /// SNORD26 /// SNORD27 /// SNORD28 /// SNORD29 /// SNORD31 / Fold change vs veh, SNHG1 /// SNORD22 /// SNORD25 /// SNORD26 /// SNORD27 /// SNORD28 /// SNORD29 /// SNORD31 / Fold change (Aza/veh), C12orf56 (ProbeSet 11735607_a_at) / Fold change (ACY-1035/veh), C12orf56 (ProbeSet 11735607_a_at) / Fold change (Aza/veh), FGFR1OP (ProbeSet 11751329_s_at) / Fold change (ACY-1035/veh), FGFR1OP (ProbeSet 11751329_s_at) / Fold change (Aza/veh), VPS36 (ProbeSet 11739960_a_at) / Fold change (ACY-1035/veh), VPS36 (ProbeSet 11739960_a_at) / RFU SYPL1 (11715823_x_at) / Fold change /veh SYPL1 (11715823_x_at) / RFU IGFBP7 (11715501_s_at) / Fold change /veh IGFBP7 (11715501_s_at) / RFU REEP3 (11722064_at) / Fold change /veh REEP3 (11722064_at) / RFU IGLL1 (11728026_x_at) / Fold change /veh IGLL1 (11728026_x_at): dose or concentration left out as unconfirmed
# Details: MV-4-11 cells, 48 hours
smiles,measurement,value
Nc1ncn([C@@H]2O[C@H](CO)[C@@H](O)[C@H]2O)c(=O)n1 [azacitidine],Fold change /veh GAP43 (11754022_s_at),0.84

# — publication PMC5218480 (PLoS ONE, 2017)
